Each compound was assayed on RSV strain A2 (assay: Antiviral detection test against RSV strain A2 based on ELISA method (Hep-2 cells)). Settings: RSV A2 virus strain, Hep-2 cells, ELISA OD450.
Assay type: cell-based, Respiratory Syncytial Virus
Description: Test Example 1: Antiviral detection test of small molecules against RSV strain A2 based on ELISA method
• Source of cell line: Nanjing Kebai Biotechnology Co., Ltd. • Cell type: human laryngeal carcinoma epithelial cells Hep-2
• 96-well culture plate (Cat.No. 3610, Corning Costar); • Fetal bovine serum (Cat.No. 10099-141, GIBCO); • DMEM medium (Cat.No. 11995500BT, GIBCO); • Envision 2104 microplate reader.
• 1. Day 1: The Hep-2 cells were seeded into a 96-well plate at a density of 1×10^4 cells/well; • 2. Day 2: • A. Compound dilution: The compound in the first well was diluted to 9 µM, and 3-fold gradient dilution was performed, with a total of 10 gradients; • B. The Hep-2 cell plate prepared on Day 1 was taken out from the incubator, the supernatant was discarded, and 100 PFU/well/50 µL of the RSV A2 virus was added to each well. The plate was stood at 37°C in a 5% CO2 incubator for 2 hours, the supernatant was aspirated and discarded, and then 100 µL of the gradient-diluted compound or DMEM maintenance medium containing 2% FBS was added to each well; • 3. Day 5: • A. Add fixative: The gradient-diluted compound or medium was discarded from the wells, and 100 µL/well of fixative (4% paraformaldehyde) was added. The plate was stood at room temperature for 10 minutes, and then was washed once with 250 µL PBS; • B. 100 µL/well of a blocking solution was added, and the plate was incubated at 37°C in a 5% CO2 incubator for 30 minutes; • C. After incubation, the detection antibody (Anti RSV Fpro) was added at 0.3 µg/50 µL/well (6 µg/mL), and the plate was incubated at 37°C in a 5% CO2 incubator for 1 hour; • D. After incubation, the HRP secondary antibody was added (diluted 10,000-fold with 0.2% BSA), and the plate was incubated at 37°C in a 5% CO2 incubator for 1 hour; • E. After incubation, the wells were washed for 4 times with PBST, 250 µL/well, each washing was allowed to stand for 5 minutes, and the liquid in the wells was shaken off after completion of the washing; • F. 100 µL/well of a development solution was added, the plate was incubated at room temperature in the dark for 20 minutes, and 50 µL/well of a reaction termination solution was added. The plate was tapped gently to mix the solutions, and the absorbance at 450 nm was measured using the microplate reader. • 4. Data analysis • Inhibition rate of the compound against the virus = 100% - (SC - CC)/(VC - CC) × 100% • SC: OD450 value of the sample (cells + test compound + virus) • CC: OD450 value of the normal growing cell control (cells) • VC: OD450 value of the virus growth control (cells + virus)
The software Graphpad Prism 6 was used, and the calculation formula XY-analysis/Nonlinear regression (curve fit)/Dose response-Inhibition/log (inhibition) vs. response-Variable slope (four parameters) was adopted to fit the IC50 curve and calculate the IC50 value.
`Cc1ccc2nc(N3CCS(=O)(=NC(N)=O)c4ccccc4C3)nc(NCC3(N)COC3)c2c1` (stereo not drawn) [Example 2-16, 1-(4-(4-(((3-aminooxetan-3-yl)methyl)amino)-6-methylquinazolin-2-yl)-1-oxido-2,3,4,5-tetrahydro-1λ^4-benzo[f][1,4]thiazepin-1-ylidene)urea] was tested, and the IC50 was > 10 nM. For `Cc1ccc2nc(N3CCS(=O)(=NCC4CCO4)c4ccccc4C3)nc(N3CC[C@@H](N)C3)c2c1` (stereo partly drawn) [Example 4-39], the IC50 was < 10 nM. With “4-(4-(((3-aminooxetan-3-yl)methyl)amino)-6-methylquinazolin-2-yl)-1-((deuteromethyl)imino)-2,3,4,5-tetrahydro-1H-1λ^4-benzo[f][1,4]thiazepine-1-oxide [Example 2-24]” the IC50 was < 10 nM.

Same assay, conditions: human respiratory syncytial virus; RSV A2 virus strain, Hep-2 cells, ELISA OD450
With `Cc1ccc2nc(N3CCS(=O)(=NC4CC4)c4ccccc4C3)nc(N[C@@H]3CNC[C@H]3O)c2c1` (stereo partly drawn) [Example 4-10, 1-(cyclopropylimino)-4-(4-(((3R,4R)-4-hydroxypyrrolidin-3-yl)amino)-6-methylquinazolin-2-yl)-2,3,4,5-tetrahydro-benzo[f][1,4]thiazepine-1-oxide] the IC50 was < 10 nM. `Cc1ccc2nc(N3CCS(=N)(=O)c4ccccc4C3)nc(NCC3(N)COC3)c2c1` (stereo not drawn) [Example 2-23, 4-(4-(((3-aminooxetan-3-yl)methyl)amino)-6-methylquinazolin-2-yl)-1-imino-2,3,4,5-tetrahydro-1H-1λ^4-benzo[f][1,4]thiazepine-1-oxide] was tested, and the IC50 was < 10 nM. In the case of `Cc1ccc2nc(N3CCS(=O)(=NCCS(C)(=O)=O)c4ccccc4C3)nc(N3CC[C@H](N)C3)c2c1` (stereo partly drawn) [Example 4-65], the IC50 is reported as < 10 nM. In the case of `Cc1ccc2nc(N3CCS(=O)(=Nc4cnn(C)c4)c4ccccc4C3)nc(NCC3(N)COC3)c2c1` (stereo not drawn) [Example 2-38, 4-(4-(((3-aminooxetan-3-yl)methyl)amino)-6-methylquinazolin-2-yl)-1-((1-methyl-1H-pyrazol-4-yl)imino)-2,3,4,5-tetrahydro-1H-1λ^4-benzo[f][1,4]thiazepine-1-oxide], the IC50 is reported as > 10 nM. In the case of `Cc1ccc2nc(N3CCS(=O)(=NCC(F)F)c4ccccc4C3)nc(NCC3(N)COC3)c2c1` (stereo not drawn) [Example 4-6, 4-(4-(((3-aminooxetan-3-yl)methyl)amino)-6-methylquinazolin-2-yl)-1-((2,2-difluoroethyl)imino)-2,3,4,5-tetrahydrobenzo[f][1,4]thiazepine-1-oxide], the IC50 is reported as < 10 nM. With `Cc1ccc2nc(N3CCS(=O)(=NCCC(C)(C)O)c4ccccc4C3)nc(N3CC[C@@H](N)C3)c2c1` (stereo partly drawn) [Example 4-56] the IC50 was < 10 nM. With `Cc1ccc2nc(N3CCS(=O)(=NC4CC4)c4ccccc4C3)nc(N[C@H]3C[C@@H](N)C3)c2c1` (stereo partly drawn) [Example 4-13, 4-(4-(((1R,3S)-3-aminocyclobutyl)amino)-6-methylquinazolin-2-yl)-1-(cyclopropylimino)-2,3,4,5-tetrahydro-benzo[f][1,4]thiazepine-1-oxide] the IC50 was < 10 nM. `CC(O)(CCN=S1(=O)CCN(c2nc(N3CC[C@H](N)C3)c3cc(C(F)F)ccc3n2)Cc2ccccc21)C(F)(F)F` (stereo partly drawn) [Example 4-63, 4-(4-((S)-3-aminopyrrolidin-1-yl)-6-(difluoromethyl)quinazolin-2-yl)-1-((4,4,4-trifluoro-3-hydroxy-3-methylbutyl)imino)-2,3,4,5-tetrahydro-benzo[f] [1,4]thiazepine-1-oxide] was tested, and the IC50 was < 10 nM. For `CNC(=O)N=S1(=O)CCN(c2nc(NCC3(N)COC3)c3cc(C)ccc3n2)Cc2ccccc21` (stereo not drawn) [Example 2-37, 1-(4-(4-(((3-aminooxetan-3-yl)methyl)amino)-6-methylquinazolin-2-yl)-1-oxido-2,3,4,5-tetrahydro-1λ^4-benzo[f][1,4]thiazepin-1-ylidene)-3-methylurea], the IC50 was < 10 nM. `Cc1ccc2nc(N3CCS(=O)(=NCCF)c4ccccc4C3)nc(NCC3(N)COC3)c2c1` (stereo not drawn) [Example 4-5, 4-(4-(((3-aminooxetan-3-yl)methyl)amino)-6-methylquinazolin-2-yl)-1-((2-fluoroethyl)imino)-2,3,4,5-tetrahydrobenzo[f][1,4]thiazepine-1-oxide] was tested, and the IC50 was < 10 nM. `Cc1ccc2nc(N3CCS(=O)(=NCC4CCOC4)c4ccccc4C3)nc(N3CC[C@H](N)C3)c2c1` (stereo partly drawn) [Example 4-72] was tested, and the IC50 was < 10 nM. In the case of `COC(=O)C1(CN)CN(c2nc(N3CCS(=O)(=NC4CC4)c4ccccc4C3)nc3ccc(C)cc23)C1` (stereo not drawn) [Example 4-57, methyl 3-(aminomethyl)-1-(2-(1-(cyclopropylimino)-1-oxido-1,2,3,5-tetrahydro-benzo[f][1,4]thiazepin-4-yl)-6-methylquinazolin-4-yl)azetidine-3-carboxylate], the IC50 is reported as < 10 nM. `Cc1ccc2nc(N3CCS(=O)(=NC4CC4)c4ccccc4C3)nc(N3CC(O)(CN)C3)c2c1` (stereo not drawn) [Example 4-2, 4-(4-(3-(aminomethyl)-3-hydroxyazetidin-1-yl)-6-methylquinazolin-2-yl)-1-(cyclopropylimino)-2,3,4,5-tetrahydro-benzo[f][1,4]thiazepine-1-oxide] was tested, and the IC50 was < 10 nM. In the case of `NC1(CNc2nc(N3CCS(=O)(=NC4CC4)c4ccccc4C3)nc3ccc(C(F)F)cc23)COC1` (stereo not drawn) [Example 2-46, 4-(4-(((3-aminooxetan-3-yl)methyl)amino)-6-(difluoromethyl)quinazolin-2-yl)-1-(cyclopropylimino)-2,3,4,5-tetrahydro-1H-1λ^4-benzo[f][1,4]thiazepine-1-oxide], the IC50 is reported as < 10 nM. With `COCCCN=S1(=O)CCN(c2nc(N3CC[C@H](N)C3)c3cc(C)ccc3n2)Cc2ccccc21` (stereo partly drawn) [Example 4-71] the IC50 was < 10 nM. `Cc1ccc2nc(N3CCS(=O)(=NCCCC#N)c4ccccc4C3)nc(N3CC[C@@H](N)C3)c2c1` (stereo partly drawn) [Example 4-47] was tested, and the IC50 was < 10 nM. `Cc1ccc2nc(N3CCS(=O)(=NC4CC4)c4ccccc4C3)nc(N3CC(N)(CO)C3)c2c1` (stereo not drawn) [Example 4-32, 4-(4-(3-amino-3-(hydroxymethyl)azetidin-1-yl)-6-methylquinazolin-2-yl)-1-(cyclopropylimino)-2,3,4,5-tetrahydro-benzo[f][1,4]thiazepine-1-oxide] was tested, and the IC50 was < 10 nM. For `Cc1ccc2nc(N3CCS(=O)(=NC(=O)C4(F)CC4)c4ccccc4C3)nc(NCC3(N)COC3)c2c1` (stereo not drawn) [Example 2-32, N-(4-(4-(((3-aminooxetan-3-yl)methyl)amino)-6-methylquinazolin-2-yl)-1-oxido-2,3,4,5-tetrahydro-1λ^4-benzo[f][1,4]thiazepin-1-ylidene)-1-fluorocyclopropane-1-carboxamide], the IC50 was < 10 nM. `CC(=O)N=S1(=O)CCN(c2nc(NCC3(N)COC3)c3cc(C)ccc3n2)Cc2ccccc21` (stereo not drawn) [Example 2-31, N-(4-(4-(((3-aminooxetan-3-yl)methyl)amino)-6-methylquinazolin-2-yl)-1-oxido-2,3,4,5-tetrahydro-1λ^4-benzo[f][1,4]thiazepin-1-ylidene)acetamide] was tested, and the IC50 was < 10 nM. `Cc1ccc2nc(N3CCS(=O)(=NCC4CCCO4)c4ccccc4C3)nc(N3CC[C@H](N)C3)c2c1` (stereo partly drawn) [Example 4-70] was tested, and the IC50 was < 10 nM. With `CN=S1(=O)CCN(c2nc(NCC3(N)COC3)c3cc(C)ccc3n2)Cc2ccccc21` (stereo not drawn) [Example 2-14, 4-(4-(((3-aminooxetan-3-yl)methyl)amino)-6-methylquinazolin-2-yl)-1-(methylimino)-2,3,4,5-tetrahydro-1H-1λ^4-benzo[f][1,4]thiazepine-1-oxide] the IC50 was < 10 nM. With `Cc1ccc2nc(N3CCS(=O)(=NC4CC4)c4ccccc4C3)nc(NCC3(N)COC3)c2c1` (stereo not drawn) [Example 2-26, 4-(4-(((3-aminooxetan-3-yl)methyl)amino)-6-methylquinazolin-2-yl)-1-(cyclopropylimino)-2,3,4,5-tetrahydro-1H-1λ^4-benzo[f][1,4]thiazepine-1-oxide] the IC50 was < 10 nM. `COCCCN=S1(=O)CCN(c2nc(N3CC[C@@H](N)C3)c3cc(C)ccc3n2)Cc2ccccc21` (stereo partly drawn) [Example 4-73] was tested, and the IC50 was < 10 nM. With `CCN=S1(=O)CCN(c2nc(NCC3(N)COC3)c3cc(C)ccc3n2)Cc2ccccc21` (stereo not drawn) [Example 2-43, 4-(4-(((3-aminooxetan-3-yl)methyl)amino)-6-methylquinazolin-2-yl)-1-(ethylimino)-2,3,4,5-tetrahydro-1H-1λ^4-benzo[f][1,4]thiazepine-1-oxide] the IC50 was < 10 nM.

Same assay, conditions: ratio of IC50 values against RSV A2 virus strain; control compound AK0529
In the case of `COC(=O)C1(CN)CN(c2nc(N3CCS(=O)(=NC4CC4)c4ccccc4C3)nc3ccc(C)cc23)C1` (stereo not drawn) [Example 4-57, methyl 3-(aminomethyl)-1-(2-(1-(cyclopropylimino)-1-oxido-1,2,3,5-tetrahydro-benzo[f][1,4]thiazepin-4-yl)-6-methylquinazolin-4-yl)azetidine-3-carboxylate], the “AK0529 IC50 / IC50 of the compounds of the present invention” value (shortened to “AK0529 IC50 / IC50”) is reported as “ratio ≥20”. In the case of `NC1(CNc2nc(N3CCS(=O)(=NC4CC4)c4ccccc4C3)nc3ccc(C(F)F)cc23)COC1` (stereo not drawn) [Example 2-46, 4-(4-(((3-aminooxetan-3-yl)methyl)amino)-6-(difluoromethyl)quinazolin-2-yl)-1-(cyclopropylimino)-2,3,4,5-tetrahydro-1H-1λ^4-benzo[f][1,4]thiazepine-1-oxide], the “AK0529 IC50 / IC50” value is reported as “ratio ≥20”. With “4-(4-(((3-aminooxetan-3-yl)methyl)amino)-6-methylquinazolin-2-yl)-1-((deuteromethyl)imino)-2,3,4,5-tetrahydro-1H-1λ^4-benzo[f][1,4]thiazepine-1-oxide [Example 2-24]” the “AK0529 IC50 / IC50” value was “ratio ≥20”.

Reference: patent EP4745139A1, “COMPOUND FOR TREATING AND PREVENTING RESPIRATORY SYNCYTIAL VIRUS INFECTION DISEASES” (CSPC Zhongqi Pharmaceutical Technology (Shijiazhuang) Co., …, priority 2023, dated 2025)
